15 molecules from PubChem BioAssay (NCI) can be followed below.

Each structure is given as a SMILES string. Values joined by “and” are separate entries in the source; they are usually repeats but may differ in a detail not shown here. Identical values can stand only once.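 Growth conditions: 96-well plates. Treatment: test compound, 48 hours, 5 concentrations. Analysis: linear interpolation between bracketing concentrations; unreached endpoints set to highest concentration. GI50 is the concentration that inhibits growth by half. Definition used: TGI = concentration required for complete inhibition of growth.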 Some results are limits rather than exact numbers.

Test in all cases: NCI anticancer screen, dose series, 48 h
In assay [1] the test system is K-562 leukemia.
Assay [2] has as its system T-47D breast.
Assay [3] has as its system A498 renal.
Assay [4] has as its system OVCAR-3 ovarian.
For assay [5], the system named is RPMI-8226 leukemia.
Assay [6] has as its system OVCAR-4 ovarian.
Assay [7] has as its system HOP-92 NSCLC.
In assay [8] the test system is SF-268 CNS.
Assay [9] concerns HCT-15 colon.
Assay [10] deals with SN12C renal.

Turning to `CCc1c[nH]c2ncnc(N3CC[C@@](N)(CNC(=O)c4ccc(F)cc4F)C3)c12`, the GI50 in assay [1] is 48.3 µM; in assay [2] it was 30.8 µM; in assay [3], 16.4 µM; in assay [4], 69.1 µM; in assay [5] it was 28.6 µM; in assay [6] it was 77.2 µM. In addition, the GI50 in [7] was 20.9 µM; in assay [8], 38 µM; in assay [9], 43.6 µM; in assay [10], 32.1 µM. Further, the TGI in [1] was more than 100 µM; in [2] it was more than 100 µM; in assay [3] it was 53.4 µM; in assay [4], more than 100 µM; in [5], more than 100 µM; in assay [6], more than 100 µM. The TGI in assay [7], in assay [8], in assay [9] and in assay [10] was more than 100 µM throughout.

With `COC(=O)[C@@H]1CCCN1C(=O)[C@@H]1CCCN1C(=O)[C@@H](Cc1c[nH]c2ccccc12)NC(=S)Nc1cc(C(F)(F)F)cc(C(F)(F)F)c1`, the GI50 in assay [1] was 3.98 µM; in assay [2], 2.91 µM; in assay [3] it was 11.1 µM; in assay [4] it was 3.8 µM; in [5], 3.34 µM; in [6] it was 4.32 µM. The GI50 was 1.46 µM in assay [7], 6.44 µM in [8], 4.87 µM in assay [9] and 6.81 µM in assay [10]. The TGI in assay [1] is more than 100 µM; in assay [2], 9.5 µM; in assay [3] it was 98.2 µM; in assay [4], 52.2 µM; in assay [5], more than 100 µM; in [6], more than 100 µM. Besides, the TGI in assay [7] is 5.26 µM; in assay [8] it was more than 100 µM; in assay [9], more than 100 µM; in assay [10] it was more than 100 µM.

In the case of `C=C[C@]1(C)C=C2C(=O)[C@@]3(O)OC[C@@]4(CCCC(C)(C)C43O)C2(O)C(O)C1` (stereo not given in full), the GI50 in assay [1] is 2.8 µM; in assay [2] it was 0.759 µM; in assay [3], 12.8 µM; in assay [4], 2.52 µM; in [5], 21 µM; in assay [6] it was 2.32 µM. Also, the GI50 was 5.13 µM in assay [7], 11.3 µM in assay [8], 3.04 µM in assay [9] and 8.4 µM in assay [10]. Besides, the TGI was more than 27.9 µM in assay [1]; 2.43 µM in [2]; 25.6 µM in assay [3]; 5.9 µM in assay [4]; more than 100 µM in [5]; 5.47 µM in [6]. The TGI stood at 18.5 µM in assay [7], 23.9 µM in [8], 9.21 µM in [9] and 23.2 µM in [10].

With `CCOC(=O)c1cnn(-c2ccnc3c(C(F)(F)F)cccc23)c1N`, the GI50 is more than 100 µM in assay [1]; more than 100 µM in assay [2]; more than 100 µM in assay [3]; more than 100 µM in assay [4]; 98.4 µM in assay [5]; more than 100 µM in assay [6]. Besides, the GI50 in assay [7] is 29.6 µM; in [8] it was more than 100 µM; in assay [9], more than 100 µM; in [10], more than 100 µM. The TGI in [1], in [2], in [3], in [4], in [5] and in assay [6] was more than 100 µM each time. Further, the TGI in assay [7], in [8], in [9] and in assay [10] was more than 100 µM throughout.

As to `C[C@H](CS(C)(=O)=O)Nc1ncc2cc(Oc3ccc(F)cc3F)c(=O)n(C)c2n1`, the GI50 in assay [1], in assay [2], in assay [3], in [4], in assay [5] and in assay [6] was more than 25 µM each time. Moreover, the GI50 is more than 10.4 µM in assay [7], more than 25 µM in assay [8], more than 25 µM in assay [9] and more than 25 µM in [10]. The TGI in assay [1], in [2], in assay [3], in [4], in assay [5] and in assay [6] was more than 25 µM in each case. For the same molecule, the TGI in [7], in assay [8], in [9] and in assay [10] was more than 25 µM in each case.

On to `Cc1ccc2c(c1)ncn2-c1ncnc2c1CC(C)c1ccccc1N2C` (stereo not given), for which the GI50 in assay [1] is 0.0399 µM; in assay [2], 2.17 µM; in [3], 0.0567 µM; in assay [4], 0.0389 µM; in assay [5], 0.149 µM; in assay [6] it was 0.624 µM. Besides, the GI50 is 3.77 µM in [7], 0.209 µM in [8], 0.0984 µM in assay [9] and 0.444 µM in [10]. The TGI in assay [1] is 11.2 µM; in [2] it was 8.53 µM; in assay [3] it was 17 µM; in assay [4] it was 0.409 µM; in assay [5] it was 1.82 µM; in assay [6] it was 24.7 µM. Also, the TGI came out at 18.7 µM in [7], 15.6 µM in assay [8], 12.5 µM in [9] and 15.6 µM in assay [10].

In the case of `COc1ccc2c(c1)C(=O)c1c-2n(CCCN2CCOCC2)c(=O)c2ccccc12`, the GI50 in assay [1] was 4.47 µM; in assay [2], 1.55 µM; in assay [3] it was 1.87 µM; in assay [4], 2.94 µM; in assay [5], 1.35 µM; in assay [6], 4.57 µM. In addition, the GI50 in assay [7] was 8.39 µM; in assay [8] it was 2.7 µM; in [9], 3.64 µM; in [10] it was 4.25 µM. For the same molecule, the TGI in assay [1] is more than 100 µM; in [2], 7.41 µM; in assay [3] it was 5.48 µM; in assay [4] it was 12.2 µM; in assay [5] it was 5.59 µM; in assay [6], more than 100 µM. Besides, the TGI in assay [7] was more than 57.5 µM; in [8] it was more than 43.9 µM; in assay [9], more than 100 µM; in assay [10] it was more than 100 µM.

`Cc1c(C)c2ccc(OC/C=C3\CCC(=O)O3)cc2oc1=O`: the GI50 in assay [1] was 29.1 µM; in assay [2] it was 14.5 µM; in [3], 17.9 µM; in [4], 15.8 µM; in assay [5], 6.1 µM; in assay [6] it was 12.6 µM. For the same molecule, the GI50 in assay [7] is 15 µM; in assay [8], 17 µM; in assay [9], 5.4 µM; in assay [10] it was 18.2 µM. In addition, the TGI in assay [1] amounted to 88.7 µM; in assay [2], 47.8 µM; in [3], 37.1 µM; in assay [4], 30.3 µM; in [5], 40.9 µM; in assay [6], 28.9 µM. The TGI in assay [7] was found to be 31.2 µM; in [8] it was 46.1 µM; in assay [9], 20.2 µM; in [10], 43 µM.

For `COc1ccccc1-c1c(C)nn2c(NCc3ccccn3)cc(C)nc12`, the GI50 in assay [1] is 5.85 µM; in assay [2], 1.04 µM; in assay [3] it was 3.84 µM; in assay [4] it was 2.58 µM; in [5], 13.6 µM; in assay [6], 2.32 µM. Further, the GI50 in assay [7] was 15.9 µM; in [8] it was 34.8 µM; in assay [9] it was 9.76 µM; in [10], 29.9 µM. Besides, the TGI in assay [1], in assay [2], in [3], in assay [4], in [5] and in assay [6] was more than 50 µM in each case. Also, the TGI in [7], in [8], in [9] and in [10] was more than 50 µM throughout.

`CCN1C(=O)N(CC)C2C1NN=c1s/c(=C3\C(=O)N(C)c4ccccc43)c(=O)n12` (stereo not given): the GI50 in assay [1] was 0.352 µM; in assay [2] it was 0.632 µM; in assay [3] it was 0.23 µM; in [4], 0.382 µM; in [5], 0.89 µM; in assay [6], 8.51 µM. In addition, the GI50 in assay [7] was 0.685 µM; in assay [8], 10.8 µM; in [9], 0.536 µM; in assay [10], 2.89 µM. Further, the TGI in assay [1] was more than 100 µM; in assay [2], more than 100 µM; in assay [3], 0.908 µM; in assay [4], 8.18 µM; in [5], 12.6 µM; in assay [6] it was more than 100 µM. In addition, the TGI in assay [7], in [8], in [9] and in assay [10] was more than 100 µM throughout.

For the molecule `CCCCCc1c(C)[nH]c(/C=C2\N=C(c3ccc[nH]3)C=C2Oc2ccc(Cl)cc2)c1C`, the GI50 in assay [1] was 0.0485 µM and 0.0367 µM; in [2] it was 0.0709 µM and 0.0329 µM; in [3], 0.134 µM and 0.033 µM; in assay [4], 0.107 µM and 0.0342 µM; in assay [5], 0.0602 µM and 0.0163 µM; in assay [6], 0.0527 µM and 0.0228 µM. The GI50 in assay [7] was 0.0417 µM and 0.0176 µM; in assay [8], 0.0767 µM and 0.0338 µM; in assay [9], 0.0779 µM and 0.0287 µM; in assay [10], 0.112 µM and 0.0549 µM. The TGI was more than 100 µM in assay [1]; 2.06 µM and 6.01 µM in assay [2]; 3.33 µM and 0.609 µM in assay [3]; 0.516 µM and 0.45 µM in [4]; 1.23 µM and 1.57 µM in assay [5]; more than 100 µM in assay [6]. In addition, the TGI in assay [7] was 0.314 µM and 0.361 µM; in [8], 3.18 µM; in [9], 1.46 µM and 1.05 µM; in assay [10], 1.92 µM.

For `Nc1nc(Nc2cccc(F)c2)nc2ccccc12`, the GI50 in assay [1] was 24.9 µM; in [2], 15.6 µM; in assay [3] it was 1.4 µM; in assay [4], 21.1 µM; in assay [5] it was 23.1 µM; in assay [6], 22.9 µM. Besides, the GI50 in assay [7] was 13.8 µM; in assay [8] it was 28.5 µM; in [9], 18.4 µM; in [10], 32.8 µM. Also, the TGI in assay [1] is more than 100 µM; in assay [2] it was 63 µM; in assay [3], 44.8 µM; in assay [4] it was 49.6 µM; in assay [5], 71.1 µM; in [6], more than 100 µM. In addition, the TGI in [7] is 38.5 µM; in assay [8], more than 100 µM; in assay [9], 47 µM; in assay [10], more than 100 µM.

Regarding `CCSc1nc(COC(=O)NC)c(COC(=O)NC)n1C`, the TGI was more than 68.1 µM in assay [1]; more than 100 µM in [2]; more than 82 µM in assay [3]; more than 100 µM in assay [4]; more than 100 µM in assay [5]; more than 84.7 µM in [6]. Further, the TGI was more than 90.6 µM in [7], more than 100 µM in [8], more than 100 µM in assay [9] and more than 100 µM in [10].

Take `Cn1cc(-c2ccc(CNc3cc(-c4cnc5cc(OCCCN6CCCC6)ccn45)ncn3)cc2)cn1`: the GI50 was 2.62 µM in [1]; 18.7 µM in assay [2]; 16.2 µM in [3]; 1.9 µM in assay [4]; 2.15 µM in assay [5]; 1.88 µM in assay [6]. Moreover, the GI50 in assay [7] is 3.89 µM; in [8] it was 1.9 µM; in assay [9] it was 2.81 µM; in assay [10], 1.82 µM. The TGI in assay [1] is more than 100 µM; in assay [2], 43.1 µM; in [3], 31.9 µM; in assay [4], 4.13 µM; in assay [5], 5.55 µM; in assay [6] it was 3.93 µM. Also, the TGI in assay [7] was 22.2 µM; in assay [8], 4.19 µM; in assay [9], 12 µM; in assay [10] it was 3.61 µM.

As for `CC(C)(Br)C(=O)/C=C/c1ccccc1`, the TGI was more than 100 µM in assay [1]; more than 52 µM in assay [2]; 36.9 µM in assay [3]; 25.4 µM in assay [4]; 3.14 µM in assay [5]; 5.58 µM in [6]. Besides, the TGI was determined as 18 µM in assay [7], 51.2 µM in assay [8], 4.63 µM in assay [9] and 22.5 µM in assay [10].
